In ChEMBL document CHEMBL4152355, “Novel multi-target compounds in the quest for new chemotherapies against Alzheimer's disease: An experimental and theoretical study” (Bioorg Med Chem, 2018):
Calls of active or inactive are those of the source. No cut-off for these calls is given here.

Assays:
[1] = Inhibition of Cu2+ induced amyloid beta (1 to 40) fibril aggregation assessed as aggregation level at 100 uM measured on day 10 by UV-visible turbidity method (reference value: 100 +/- 8.72%); set-up: scale not given: the % may be the effect or the level left
[2] = Toxicity in Tetrahymena thermophila assessed as decrease in viability after 48 hrs by MTT assay; assay type: organism-based; details: Tetrahymena thermophila cells, read-out: LD50
[3] = target: Amyloid-beta precursor protein (Homo sapiens) (UniProt P05067); experiment: Disaggregation of self-induced amyloid beta (1 to 40) (unknown origin) preformed fibrils assessed as fluorescence emission at 100 uM after 4 days by thioflavin-T based assay; set-up: reference not given here
Amyloid-beta precursor protein (Homo sapiens), sequence (P05067 whole entry): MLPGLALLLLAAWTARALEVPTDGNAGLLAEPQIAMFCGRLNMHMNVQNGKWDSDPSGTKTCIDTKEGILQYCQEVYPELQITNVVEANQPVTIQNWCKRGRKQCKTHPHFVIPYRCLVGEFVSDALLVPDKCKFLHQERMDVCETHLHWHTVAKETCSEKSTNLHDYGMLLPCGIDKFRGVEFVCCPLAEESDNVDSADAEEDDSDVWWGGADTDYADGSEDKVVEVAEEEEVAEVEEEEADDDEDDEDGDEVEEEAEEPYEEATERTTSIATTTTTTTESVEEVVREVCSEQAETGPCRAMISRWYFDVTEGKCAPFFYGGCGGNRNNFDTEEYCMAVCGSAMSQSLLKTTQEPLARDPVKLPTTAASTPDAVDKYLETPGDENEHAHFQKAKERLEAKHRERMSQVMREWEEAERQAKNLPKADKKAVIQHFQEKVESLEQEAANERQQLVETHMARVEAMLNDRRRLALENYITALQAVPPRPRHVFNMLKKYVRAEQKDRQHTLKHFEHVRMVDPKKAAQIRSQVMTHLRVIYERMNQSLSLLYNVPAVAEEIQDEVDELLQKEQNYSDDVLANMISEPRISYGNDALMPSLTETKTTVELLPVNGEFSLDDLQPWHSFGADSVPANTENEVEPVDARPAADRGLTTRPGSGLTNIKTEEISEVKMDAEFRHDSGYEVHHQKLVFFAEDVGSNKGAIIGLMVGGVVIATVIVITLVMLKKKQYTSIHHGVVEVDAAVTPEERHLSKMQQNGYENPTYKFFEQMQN

[4] = Inhibition of Cu2+ induced amyloid beta (1 to 40) fibril aggregation assessed as fluorescence emission at 100 uM measured on day 10 by thioflavin-T based assay (reference value: 412.11 +/- 35.93)
[5] = Inhibition of Cu2+ induced amyloid beta (1 to 40) fibril aggregation assessed as aggregation level at 100 uM measured on day 3 by UV-visible turbidity method (reference value: 100 +/- 17.24%); set-up: scale not given: the % may be the effect or the level left
[6] = target: Amyloid-beta precursor protein (Homo sapiens) (UniProt P05067); experiment: Inhibition of self-induced amyloid beta (1 to 40) (unknown origin) fibril aggregation assessed as aggregation level at 100 uM measured on day 3 by UV-visible turbidity method; set-up: scale not given: the % may be the effect or the level left
[7] = Disaggregation of Cu2+ induced amyloid beta (1 to 40) preformed fibrils assessed as fluorescence emission at 100 uM after 4 days by thioflavin-T based assay (reference value: 178.07 +/- 17.24)
[8] = Antioxidant activity assessed as AAPH radical scavenging activity at 1 to 16 uM by ORAC assay; assay type: functional
[9] = target: Amyloid-beta precursor protein (Homo sapiens) (UniProt P05067); experiment: Inhibition of self-induced amyloid beta (1 to 40) (unknown origin) fibril aggregation assessed as fluorescence emission at 100 uM measured on day 10 by thioflavin-T based assay; set-up: reference not given here
[10] = target: Amyloid-beta precursor protein (Homo sapiens) (UniProt P05067); experiment: Inhibition of self-induced amyloid beta (1 to 40) (unknown origin) fibril aggregation assessed as fluorescence emission at 100 uM measured on day 3 by thioflavin-T based assay
[11] = Metal chelating activity assessed as inhibition of Cu2+ induced amyloid beta (1 to 40) aggregation by measuring decrease in ROS production at 2 equiv after 75 mins by fluorescence assay
[12] = target: Amyloid-beta precursor protein (Homo sapiens) (UniProt P05067); experiment: Inhibition of self-induced amyloid beta (1 to 40) (unknown origin) fibril aggregation assessed as aggregation level at 100 uM measured on day 7 by UV-visible turbidity method; set-up: scale not given: the % may be the effect or the level left
[13] = Disaggregation of Cu2+ induced amyloid beta (1 to 40) preformed fibrils assessed as aggregation level at 100 uM after 12 days by UV-visible turbidity method (reference value: 120.73 +/- 1.86%)
[14] = Cytotoxicity against human HEK293 cells assessed as decrease in cell viability after 48 hrs by MTT assay; assay type: cell-based; details: read-out: LD50
[15] = target: Amyloid-beta precursor protein (Homo sapiens) (UniProt P05067); experiment: Disaggregation of self-induced amyloid beta (1 to 40) (unknown origin) preformed fibrils assessed as aggregation level at 100 uM after 12 days by UV-visible turbidity method
[16] = Disaggregation of Cu2+ induced amyloid beta (1 to 40) preformed fibrils assessed as fluorescence emission at 100 uM after 12 days by thioflavin-T based assay (reference value: 150.21 +/- 2.32)
[17] = target: Amyloid-beta precursor protein (Homo sapiens) (UniProt P05067); experiment: Disaggregation of self-induced amyloid beta (1 to 40) (unknown origin) preformed fibrils assessed as fluorescence emission at 100 uM after 12 days by thioflavin-T based assay; set-up: reference not given here
[18] = target: Amyloid-beta precursor protein (Homo sapiens) (UniProt P05067); experiment: Inhibition of self-induced amyloid beta (1 to 40) (unknown origin) fibril aggregation assessed as fluorescence emission at 100 uM measured on day 7 by thioflavin-T based assay
[19] = Inhibition of Cu2+ induced amyloid beta (1 to 40) fibril aggregation assessed as fluorescence emission at 100 uM measured on day 7 by thioflavin-T based assay (reference value: 181.04 +/- 1.74)
[20] = Inhibition of Cu2+ induced amyloid beta (1 to 40) fibril aggregation assessed as fluorescence emission at 100 uM measured on day 3 by thioflavin-T based assay (reference value: 33.64 +/- 5.80)
[21] = Disaggregation of Cu2+ induced amyloid beta (1 to 40) preformed fibrils assessed as aggregation level at 100 uM after 4 days by UV-visible turbidity method (reference value: 143.11 +/- 0.76%)
[22] = Inhibition of Cu2+ induced amyloid beta (1 to 40) fibril aggregation assessed as aggregation level at 100 uM measured on day 7 by UV-visible turbidity method (reference value: 100 +/- 0.96%); set-up: scale not given: the % may be the effect or the level left
[23] = target: T1, Beta-secretase 1 (Homo sapiens, UniProt P56817); experiment: Inhibition of BACE 1 (unknown origin) at 10 to 50 uM using Rh-EVNLDAEFK-Quencher as substrate after 1 hr by FRET assay relative to control
T1 sequence (P56817 whole entry): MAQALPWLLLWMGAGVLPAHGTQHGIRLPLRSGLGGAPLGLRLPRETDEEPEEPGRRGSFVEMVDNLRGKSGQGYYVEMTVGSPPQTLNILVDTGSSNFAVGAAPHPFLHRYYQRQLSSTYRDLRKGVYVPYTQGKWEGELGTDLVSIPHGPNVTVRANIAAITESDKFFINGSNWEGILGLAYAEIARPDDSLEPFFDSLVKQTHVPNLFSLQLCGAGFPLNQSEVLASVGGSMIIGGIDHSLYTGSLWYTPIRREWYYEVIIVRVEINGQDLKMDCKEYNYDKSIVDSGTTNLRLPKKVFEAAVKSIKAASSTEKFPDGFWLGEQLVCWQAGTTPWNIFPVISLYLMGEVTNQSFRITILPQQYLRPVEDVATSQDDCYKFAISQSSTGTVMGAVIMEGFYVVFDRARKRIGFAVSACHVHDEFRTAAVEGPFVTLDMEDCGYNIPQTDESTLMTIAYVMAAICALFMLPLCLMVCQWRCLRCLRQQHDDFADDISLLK

[24] = Metal chelating activity assessed as compound-Cu2+ adduct formation by spectrophotometric analysis
[25] = target: T1, Beta-secretase 1; experiment: Inhibition of BACE 1 (unknown origin) at 50 uM using Rh-EVNLDAEFK-Quencher as substrate after 1 hr by FRET assay relative to control
[26] = target: T1, Beta-secretase 1; experiment: Inhibition of BACE 1 (unknown origin) using 250 nM of Rh-EVNLDAEFK-Quencher as substrate after 1 hr by FRET assay
[27] = tested on: Tetrahymena thermophila; experiment: Toxicity in Tetrahymena thermophila assessed as decrease in viability after 48 hrs by MTT assay relative to resveratrol; assay type: organism-based; details: in vivo
[28] = target: Amyloid-beta precursor protein (Homo sapiens) (UniProt P05067); experiment: Induction of amyloid beta (1 to 40) (unknown origin) amorphous aggregation at 100 uM after 10 days
[29] = Metal chelating activity assessed as compound-Cu2+ adduct formation at 20 uM by spectrophotometric titration analysis
[30] = target: Amyloid-beta precursor protein (Homo sapiens) (UniProt P05067); experiment: Inhibition of self-induced amyloid beta (1 to 40) (unknown origin) fibril aggregation assessed as aggregation level at 100 uM measured on day 10 by UV-visible turbidity method; set-up: scale not given: the % may be the effect or the level left
[31] = target: Amyloid-beta precursor protein (Homo sapiens) (UniProt P05067); experiment: Disaggregation of self-induced amyloid beta (1 to 40) (unknown origin) preformed fibrils assessed as aggregation level at 100 uM after 4 days by UV-visible turbidity method
[32] = tested on: HEK293; experiment: Cytotoxicity against human HEK293 cells assessed as decrease in cell viability after 48 hrs by MTT assay relative to resveratrol; assay type: cell-based; details: hek293, 48 h
[33] = target: T1, Beta-secretase 1; experiment: Inhibition of BACE 1 (unknown origin) using 500 nM of Rh-EVNLDAEFK-Quencher as substrate after 1 hr by FRET assay

| SMILES | Activity [1] [%] | Flu intensity [3] | Flu intensity [4] | Activity [5] [%] | Activity [6] [%] | Flu intensity [7] | ORAC (Trolox equivalents) [8] | Flu intensity [9] | Flu intensity [10] | inhibition [11] [%] | Activity [12] [%] | Activity [13] [%] | CC50 at 48 h [14] [µM] | Activity [15] [%] | Flu intensity [16] | Flu intensity [17] | Flu intensity [18] | Flu intensity [19] | Flu intensity [20] | Activity [21] [%] | other results |
| --- | --- | --- | --- | --- | --- | --- | --- | --- | --- | --- | --- | --- | --- | --- | --- | --- | --- | --- | --- | --- | --- |
| Oc1ccc(/C=C/c2cc(O)cc(O)c2)cc1 [RESVERATROL] | 6.63 | 230 | 27.3 | 222 | 108 | 29.8 | 1.7 | 251 | 272 | 9 | 75.2 | 20.2 | 71.3 | 44.5 | 25.2 | 114 | 294 | 65 | 74.7 | 23.9 | LC50 at 48 h [2]: 240 µM; Activity [22]: 35.9% |
| Oc1ccc(/C=N/CCn2ccc3cccnc32)c(O)c1 | 44.9 | 226 | 185 | 673 | 124 | 106 | 8.13 | 344 | 310 | 71.9 | 94 | 59.7 | 280 | 85.9 | 74.3 | 219 | 368 | 233 | 227 | 85.4 | inhibition [23]: < 50%; Activity [24]: Active; LC50 at 48 h [2]: 610 µM; inhibition [25]: 31.6%; IC50 [26]: 107 µM; fold change (FC) [27]: 2.5; Activity [28]: 6 to 33%; logKa [29]: 12.7; Activity [30]: 84.2%; Activity [31]: 88.4%; fold change (FC) [32]: 3.9; Activity [22]: 129% |
| O=C1O[C@H]([C@@H](O)CO)C(O)=C1O |  |  |  |  |  |  | 62.2 |  |  |  |  |  |  |  |  |  |  |  |  |  |  |
| Oc1ccccc1/C=N/CCNc1ccnc2cc(Cl)ccc12 | 39.1 | 262 | 161 | 410 | 137 | 97 | 2.33 | 286 | 344 | 57.9 | 117 | 54.8 | 113 | 90 | 68.2 | 230 | 458 | 178 | 138 | 78 | Activity [24]: Active; inhibition [25]: 29.6%; IC50 [26]: > 160 µM; Activity [28]: 6 to 33%; logKa [29]: 15.3; Activity [30]: 94.3%; Activity [31]: 102%; fold change (FC) [32]: 1.6; Activity [22]: 98.5% |
| Cl.Nc1ncnc2c1ncn2CCNCC/N=C/c1ccc(O)cc1O | 32.7 | 246 | 135 | 299 | 98.2 | 60.9 | 2.39 | 367 | 247 | 97.5 | 90.9 | 30.9 | 336 | 88.4 | 38.4 | 226 | 356 | 172 | 100 | 48.9 | inhibition [23]: < 50%; Activity [24]: Active; LC50 at 48 h [2]: 811 µM; inhibition [25]: 59.2%; IC50 [26]: 41.4 µM; fold change (FC) [27]: 3.4; Activity [28]: 6 to 33%; IC50 [33]: 42 µM; logKa [29]: 14.8; Activity [30]: 89.8%; Activity [31]: 96.3%; fold change (FC) [32]: 4.7; Activity [22]: 94.8% |
| C[C@@]1(c2cc(-c3cncnc3)c(F)cc2F)CCSC(N)=N1 |  |  |  |  |  |  |  |  |  |  |  |  |  |  |  |  |  |  |  |  | inhibition [25]: 100% |
| CCN(CC)CCCC(C)Nc1ccnc2cc(Cl)ccc12 (configuration not stated) |  |  |  |  |  |  |  |  |  |  |  |  |  |  |  |  |  |  |  |  | inhibition [23]: < 50% |
| Oc1ccc(/C=N/CCn2ccc3ccccc32)c(O)c1 | 37.6 | 213 | 155 | 722 | 109 | 73 | 5.22 | 298 | 273 | 68.5 | 86 | 47.5 | 193 | 71.8 | 59 | 183 | 336 | 203 | 243 | 58.6 | inhibition [23]: < 50%; Activity [24]: Active; LC50 at 48 h [2]: 556 µM; inhibition [25]: 100%; IC50 [26]: 4.4 µM; fold change (FC) [27]: 2.3; Activity [28]: 6 to 33%; IC50 [33]: 5.7 µM; logKa [29]: 13.4; Activity [30]: 73%; Activity [31]: 83.2%; fold change (FC) [32]: 2.7; Activity [22]: 112% |
